# Measurements published in paper PMC10046369, “Low-Affinity/High-Selectivity Dopamine Transport Inhibition Sufficient to Rescue Cognitive Functions in the Aging Rat” (Biomolecules, 2023).
# How the values were obtained:
# Experiment in all cases: biochemical
# Design in all cases: KINOMEscan competition binding panel, per cent of control
# Details in all cases: read-out: %Ctrl @ 2800nM
# [1] = target: T1, ABL1(F317L)-nonphosphorylated (Homo sapiens, UniProt P00519, F317L)
# T1 construct: nonphosphorylated
# Method in brief: (§1)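 Competition binding panel (KINOMEscan) across 450 human kinases and disease-relevant mutants, run to the contractor's standard protocol. Values are % control: (test signal − positive control signal)/(negative control signal − positive control signal) × 100, with lower values indicating stronger binding.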
# ABL1-phosphorylated = target: T2, ABL1-phosphorylated (Homo sapiens, UniProt P00519)
# T2 construct: phosphorylated
# Method in brief: as §1
# ANKK1 = ANKK1 (Homo sapiens, UniProt Q8NFD2)
# Method in brief: as §1
# AXL = AXL (Homo sapiens, UniProt P30530)
# Chain of AXL (P30530 whole entry): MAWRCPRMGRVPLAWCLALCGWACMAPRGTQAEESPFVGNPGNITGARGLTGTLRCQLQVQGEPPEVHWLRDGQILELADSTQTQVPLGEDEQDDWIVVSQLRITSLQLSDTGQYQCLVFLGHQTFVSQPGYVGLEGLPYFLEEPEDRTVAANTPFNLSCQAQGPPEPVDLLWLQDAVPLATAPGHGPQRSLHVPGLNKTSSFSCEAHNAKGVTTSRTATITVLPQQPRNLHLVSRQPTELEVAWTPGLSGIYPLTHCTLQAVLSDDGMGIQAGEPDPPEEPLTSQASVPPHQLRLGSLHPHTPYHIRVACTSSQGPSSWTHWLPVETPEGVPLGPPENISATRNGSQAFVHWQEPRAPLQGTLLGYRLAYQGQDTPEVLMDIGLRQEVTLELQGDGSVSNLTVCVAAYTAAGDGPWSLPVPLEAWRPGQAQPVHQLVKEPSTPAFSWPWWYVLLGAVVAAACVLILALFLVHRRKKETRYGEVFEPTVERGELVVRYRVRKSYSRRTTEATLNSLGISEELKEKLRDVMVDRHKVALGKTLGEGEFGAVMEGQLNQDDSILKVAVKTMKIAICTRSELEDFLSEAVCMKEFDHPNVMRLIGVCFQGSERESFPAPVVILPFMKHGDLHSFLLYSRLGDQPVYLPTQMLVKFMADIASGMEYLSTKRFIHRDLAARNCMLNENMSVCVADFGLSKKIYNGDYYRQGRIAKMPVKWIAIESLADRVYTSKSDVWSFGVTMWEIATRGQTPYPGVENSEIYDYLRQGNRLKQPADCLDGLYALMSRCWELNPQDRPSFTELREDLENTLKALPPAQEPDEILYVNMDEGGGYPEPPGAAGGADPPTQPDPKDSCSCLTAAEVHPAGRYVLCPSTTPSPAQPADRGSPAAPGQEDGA
# Method in brief: as §1
# BMPR2 = BMPR2 (Homo sapiens, UniProt Q13873)
# Chain of BMPR2 (Q13873 whole entry): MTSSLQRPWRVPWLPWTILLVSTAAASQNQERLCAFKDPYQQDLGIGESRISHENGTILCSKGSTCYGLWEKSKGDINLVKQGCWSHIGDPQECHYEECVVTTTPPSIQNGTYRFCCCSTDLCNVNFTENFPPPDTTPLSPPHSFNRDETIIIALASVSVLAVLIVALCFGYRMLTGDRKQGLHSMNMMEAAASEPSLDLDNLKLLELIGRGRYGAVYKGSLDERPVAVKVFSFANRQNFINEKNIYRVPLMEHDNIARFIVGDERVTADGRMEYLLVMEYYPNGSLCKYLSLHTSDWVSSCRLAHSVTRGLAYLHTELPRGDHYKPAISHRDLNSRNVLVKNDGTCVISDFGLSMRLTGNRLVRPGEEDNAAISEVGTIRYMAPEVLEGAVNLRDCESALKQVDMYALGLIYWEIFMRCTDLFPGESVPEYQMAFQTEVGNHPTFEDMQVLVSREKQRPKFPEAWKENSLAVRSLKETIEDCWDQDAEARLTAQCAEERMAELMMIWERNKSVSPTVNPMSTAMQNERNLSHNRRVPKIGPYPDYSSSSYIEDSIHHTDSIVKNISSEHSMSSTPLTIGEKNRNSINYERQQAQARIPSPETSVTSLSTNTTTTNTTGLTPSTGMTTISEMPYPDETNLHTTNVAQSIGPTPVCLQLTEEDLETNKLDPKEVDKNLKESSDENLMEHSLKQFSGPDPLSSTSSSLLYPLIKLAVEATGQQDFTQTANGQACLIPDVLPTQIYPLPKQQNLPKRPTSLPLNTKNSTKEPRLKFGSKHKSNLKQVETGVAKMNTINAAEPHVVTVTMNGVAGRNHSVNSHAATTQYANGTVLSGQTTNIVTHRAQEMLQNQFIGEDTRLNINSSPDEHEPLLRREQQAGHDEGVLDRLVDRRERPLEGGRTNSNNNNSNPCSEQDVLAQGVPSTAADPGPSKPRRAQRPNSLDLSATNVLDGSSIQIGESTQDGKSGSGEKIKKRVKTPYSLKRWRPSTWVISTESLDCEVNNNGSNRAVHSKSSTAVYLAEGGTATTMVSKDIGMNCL
# Method in brief: as §1
# BUB1 = BUB1 (Homo sapiens, UniProt O43683)
# Method in brief: as §1
# CDK4-cyclinD1 = target: T3, CDK4-cyclinD1 (Homo sapiens, UniProt P11802)
# T3 construct: cyclinD1
# Method in brief: as §1
# DAPK1 = DAPK1 (Homo sapiens, UniProt P53355)
# Method in brief: as §1
# DYRK1A = DYRK1A (Homo sapiens, UniProt Q13627)
# Method in brief: as §1
# EGFR(E746-A750del) = EGFR(E746-A750del) (Homo sapiens, UniProt P00533, DEL746-750)
# Method in brief: as §1
# EPHA3 = EPHA3 (Homo sapiens, UniProt P29320)
# Method in brief: as §1
# EPHB6 = EPHB6 (Homo sapiens, UniProt O15197)
# Method in brief: as §1
# FLT3(D835Y) = FLT3(D835Y) (Homo sapiens, UniProt P36888, D835Y)
# Method in brief: as §1
# KIT(V559D,T670I) = KIT(V559D,T670I) (Homo sapiens, UniProt P10721, T670I/V559D)
# Chain of KIT(V559D,T670I) (P10721 whole entry V559D/T670I): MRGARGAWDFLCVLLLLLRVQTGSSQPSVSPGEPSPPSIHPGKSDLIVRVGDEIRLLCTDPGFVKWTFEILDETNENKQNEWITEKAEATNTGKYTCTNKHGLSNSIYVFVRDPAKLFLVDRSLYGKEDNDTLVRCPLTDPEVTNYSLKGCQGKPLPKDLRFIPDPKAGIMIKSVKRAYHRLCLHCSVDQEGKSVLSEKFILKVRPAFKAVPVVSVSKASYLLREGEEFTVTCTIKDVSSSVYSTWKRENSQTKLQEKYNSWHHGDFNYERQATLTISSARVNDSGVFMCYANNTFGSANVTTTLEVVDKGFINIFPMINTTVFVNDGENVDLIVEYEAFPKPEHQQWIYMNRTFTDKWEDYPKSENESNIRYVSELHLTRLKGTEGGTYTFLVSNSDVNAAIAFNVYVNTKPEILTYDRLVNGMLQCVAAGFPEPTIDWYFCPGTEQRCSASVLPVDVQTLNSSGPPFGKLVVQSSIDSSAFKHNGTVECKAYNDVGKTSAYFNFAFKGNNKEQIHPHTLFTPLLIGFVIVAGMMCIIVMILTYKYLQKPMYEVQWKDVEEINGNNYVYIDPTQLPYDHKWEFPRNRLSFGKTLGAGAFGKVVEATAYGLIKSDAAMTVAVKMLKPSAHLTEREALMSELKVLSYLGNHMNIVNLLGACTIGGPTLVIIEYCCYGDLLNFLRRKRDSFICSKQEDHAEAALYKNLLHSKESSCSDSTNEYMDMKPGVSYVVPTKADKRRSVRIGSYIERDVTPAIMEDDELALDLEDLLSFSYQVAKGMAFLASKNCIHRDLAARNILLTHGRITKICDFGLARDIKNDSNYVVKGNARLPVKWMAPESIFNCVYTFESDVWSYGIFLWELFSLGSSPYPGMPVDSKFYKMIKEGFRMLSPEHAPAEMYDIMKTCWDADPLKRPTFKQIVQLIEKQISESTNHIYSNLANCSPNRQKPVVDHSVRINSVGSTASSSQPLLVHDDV
# Method in brief: as §1
# MAP3K2 = MAP3K2 (Homo sapiens, UniProt Q9Y2U5)
# Method in brief: as §1
# MAP4K4 = MAP4K4 (Homo sapiens, UniProt O95819)
# Chain of MAP4K4 (O95819 whole entry): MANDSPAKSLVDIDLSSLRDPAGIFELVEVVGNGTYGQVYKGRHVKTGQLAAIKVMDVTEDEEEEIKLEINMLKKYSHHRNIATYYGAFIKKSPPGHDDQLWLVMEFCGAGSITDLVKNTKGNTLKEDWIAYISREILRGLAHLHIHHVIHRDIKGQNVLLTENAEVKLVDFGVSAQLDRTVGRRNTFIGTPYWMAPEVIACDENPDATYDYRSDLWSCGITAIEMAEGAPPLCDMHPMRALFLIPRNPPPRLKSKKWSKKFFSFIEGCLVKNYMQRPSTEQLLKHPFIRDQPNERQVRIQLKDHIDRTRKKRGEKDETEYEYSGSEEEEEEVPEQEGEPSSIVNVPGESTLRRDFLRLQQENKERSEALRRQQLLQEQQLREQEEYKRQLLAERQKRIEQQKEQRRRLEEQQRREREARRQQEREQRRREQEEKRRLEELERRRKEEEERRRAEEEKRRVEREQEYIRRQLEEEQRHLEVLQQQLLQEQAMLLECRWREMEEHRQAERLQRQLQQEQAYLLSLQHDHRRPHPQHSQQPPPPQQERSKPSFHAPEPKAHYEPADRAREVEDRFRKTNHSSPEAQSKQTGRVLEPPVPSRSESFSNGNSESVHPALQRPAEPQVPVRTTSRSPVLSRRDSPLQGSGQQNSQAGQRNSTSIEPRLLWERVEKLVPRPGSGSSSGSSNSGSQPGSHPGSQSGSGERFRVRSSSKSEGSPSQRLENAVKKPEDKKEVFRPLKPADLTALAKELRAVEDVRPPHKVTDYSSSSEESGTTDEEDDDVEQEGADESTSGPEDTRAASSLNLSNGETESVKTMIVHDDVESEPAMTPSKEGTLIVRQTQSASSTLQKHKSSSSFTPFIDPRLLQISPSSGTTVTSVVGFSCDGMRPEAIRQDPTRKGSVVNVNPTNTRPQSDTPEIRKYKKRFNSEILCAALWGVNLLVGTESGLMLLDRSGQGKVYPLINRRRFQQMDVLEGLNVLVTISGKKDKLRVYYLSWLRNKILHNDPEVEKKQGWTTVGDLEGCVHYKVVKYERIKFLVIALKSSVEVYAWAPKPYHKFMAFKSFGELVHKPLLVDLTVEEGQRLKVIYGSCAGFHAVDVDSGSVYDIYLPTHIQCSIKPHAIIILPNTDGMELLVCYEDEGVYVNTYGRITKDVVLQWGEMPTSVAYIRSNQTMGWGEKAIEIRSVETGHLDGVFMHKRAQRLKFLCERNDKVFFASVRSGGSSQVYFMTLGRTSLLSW
# Method in brief: as §1
# MARK4 = MARK4 (Homo sapiens, UniProt Q96L34)
# Method in brief: as §1
# MRCKA = target: T4, MRCKA (Homo sapiens, UniProt Q5VT25)
# T4 construct: gene CDC42BPA
# Method in brief: as §1
# MRCKB = target: T5, MRCKB (Homo sapiens, UniProt Q9Y5S2)
# T5 construct: gene CDC42BPB
# Method in brief: as §1
# PIK3CA(E542K) = PIK3CA(E542K) (Homo sapiens, UniProt P42336, E542K)
# Method in brief: as §1
# PIK3CA(H1047L) = PIK3CA(H1047L) (Homo sapiens, UniProt P42336, H1047L)
# Method in brief: as §1
# PRKD3 = PRKD3 (Homo sapiens, UniProt O94806)
# Method in brief: as §1
# [2] = target: T6, RPS6KA4(Kin.Dom.2-C-terminal) (Homo sapiens, UniProt O75676)
# T6 construct: Kin.Dom.2-C-terminal
# Method in brief: as §1
# SIK2 = SIK2 (Homo sapiens, UniProt Q9H0K1)
# Chain of SIK2 (Q9H0K1 whole entry): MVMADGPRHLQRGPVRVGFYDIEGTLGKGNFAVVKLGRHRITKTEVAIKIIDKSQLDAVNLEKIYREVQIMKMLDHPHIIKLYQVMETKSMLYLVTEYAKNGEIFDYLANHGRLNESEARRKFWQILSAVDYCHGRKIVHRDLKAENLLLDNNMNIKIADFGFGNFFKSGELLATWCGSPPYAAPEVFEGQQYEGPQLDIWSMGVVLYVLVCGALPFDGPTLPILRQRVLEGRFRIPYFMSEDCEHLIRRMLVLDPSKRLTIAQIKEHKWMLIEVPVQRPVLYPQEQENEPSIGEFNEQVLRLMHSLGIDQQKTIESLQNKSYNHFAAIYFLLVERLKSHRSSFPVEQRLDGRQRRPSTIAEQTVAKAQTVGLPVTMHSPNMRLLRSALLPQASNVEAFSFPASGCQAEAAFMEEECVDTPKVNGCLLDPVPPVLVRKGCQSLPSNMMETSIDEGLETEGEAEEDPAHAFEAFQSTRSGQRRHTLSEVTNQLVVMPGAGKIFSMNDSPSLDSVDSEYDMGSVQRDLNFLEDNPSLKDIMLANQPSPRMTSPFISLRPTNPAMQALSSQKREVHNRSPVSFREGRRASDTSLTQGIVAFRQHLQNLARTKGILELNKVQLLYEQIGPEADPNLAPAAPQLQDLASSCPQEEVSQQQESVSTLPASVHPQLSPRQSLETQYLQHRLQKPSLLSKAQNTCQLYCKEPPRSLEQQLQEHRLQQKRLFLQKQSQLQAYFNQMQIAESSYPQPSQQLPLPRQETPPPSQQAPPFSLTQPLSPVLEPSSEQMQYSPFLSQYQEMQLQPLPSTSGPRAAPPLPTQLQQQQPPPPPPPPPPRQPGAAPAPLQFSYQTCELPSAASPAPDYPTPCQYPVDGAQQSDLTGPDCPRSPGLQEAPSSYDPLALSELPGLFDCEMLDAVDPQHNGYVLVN
# Method in brief: as §1
# SgK110 = target: T7, SgK110 (Homo sapiens, UniProt P0C264)
# T7 construct: gene SBK3
# Method in brief: as §1
# TLK2 = TLK2 (Homo sapiens, UniProt Q86UE8)
# Method in brief: as §1
smiles,measurement,setting,value
"[O-][S@@+](Cc1cncs1)C(c1ccccc1)c1ccccc1 [S-CE-123, (S)-5-((Benzhydrylsulfinyl)Methyl)Thiazole]",remaining binding at 2.8 µM,[1],100%
same,remaining binding at 2.8 µM,ABL1-phosphorylated,100%
same,remaining binding at 2.8 µM,ANKK1,100%
same,remaining binding at 2.8 µM,AXL,96%
same,remaining binding at 2.8 µM,BMPR2,100%
same,remaining binding at 2.8 µM,BUB1,100%
same,remaining binding at 2.8 µM,CDK4-cyclinD1,100%
same,remaining binding at 2.8 µM,DAPK1,91%
same,remaining binding at 2.8 µM,DYRK1A,96%
same,remaining binding at 2.8 µM,EGFR(E746-A750del),93%
same,remaining binding at 2.8 µM,EPHA3,97%
same,remaining binding at 2.8 µM,EPHB6,89%
same,remaining binding at 2.8 µM,FLT3(D835Y),99%
same,remaining binding at 2.8 µM,"KIT(V559D,T670I)",83%
same,remaining binding at 2.8 µM,MAP3K2,100%
same,remaining binding at 2.8 µM,MAP4K4,100%
same,remaining binding at 2.8 µM,MARK4,98%
same,remaining binding at 2.8 µM,MRCKA,95%
same,remaining binding at 2.8 µM,MRCKB,98%
same,remaining binding at 2.8 µM,PIK3CA(E542K),88%
same,remaining binding at 2.8 µM,PIK3CA(H1047L),100%
same,remaining binding at 2.8 µM,PRKD3,96%
same,remaining binding at 2.8 µM,[2],99%
same,remaining binding at 2.8 µM,SIK2,100%
same,remaining binding at 2.8 µM,SgK110,72%
same,remaining binding at 2.8 µM,TLK2,95%
